Laboratory results reported in PubChem BioAssay AID248 (DTP/NCI, 2004).
Values joined by “and” are separate entries in the source; they are usually repeats but may differ in a detail not shown here. Equal entries are not always repeated. Toxic doses and inconclusive results are not listed.

Test system: L1210 leukemia ip in BDF1 mice, survival T/C
Test: NCI In Vivo Anticancer Drug Screen. Data for tumor model L1210 Leukemia (intraperitoneal) in B6D2F1 (BDF1) mice
Details: endpoint: mean survival time, higher = longer survival
In short: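 Tumor was transplanted into mice, which were then dosed with test compound or vehicle alone. Survival was recorded for each group, and the treated figure was expressed relative to the control figure.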

[1] = dose: 25.0 mg/kg/injection, schedule: Q01DX009 (ip), vehicle: Klucel (hydroxypropylcellulose) (HPC)
[2] = dose: 50.0 mg/kg/injection, schedule: Q01DX009 (ip), vehicle: Klucel (hydroxypropylcellulose) (HPC)
[3] = dose: 100.0 mg/kg/injection, schedule: Q01DX009 (ip), vehicle: Klucel (hydroxypropylcellulose) (HPC)
[4] = dose: 100.0 mg/kg/injection, schedule: Q01DX001 (ip), vehicle: other
[5] = dose: 200.0 mg/kg/injection, schedule: Q01DX001 (ip), vehicle: other
[6] = dose: 400.0 mg/kg/injection, schedule: Q01DX001 (ip), vehicle: other
[7] = dose: 6.25 mg/kg/injection, schedule: Q01DX009 (ip), vehicle: saline
[8] = dose: 100.0 mg/kg/injection, schedule: Q01DX009 (ip), vehicle: saline with Tween-80
[9] = dose: 100.0 mg/kg/injection, schedule: Q04DX003 (ip), vehicle: saline with Tween-80
[10] = dose: 200.0 mg/kg/injection, schedule: Q01DX009 (ip), vehicle: saline with Tween-80
[11] = dose: 200.0 mg/kg/injection, schedule: Q04DX003 (ip), vehicle: saline with Tween-80
[12] = dose: 50.0 mg/kg/injection, schedule: Q01DX009 (ip), vehicle: saline
[13] = dose: 100.0 mg/kg/injection, schedule: Q01DX009 (ip), vehicle: saline
[14] = dose: 200.0 mg/kg/injection, schedule: Q01DX009 (ip), vehicle: saline
[15] = dose: 200.0 mg/kg/injection, schedule: Q01DX009 (ip), vehicle: Klucel (hydroxypropylcellulose) (HPC)
[16] = dose: 400.0 mg/kg/injection, schedule: Q01DX009 (ip), vehicle: Klucel (hydroxypropylcellulose) (HPC)
[17] = dose: 100.0 mg/kg/injection, schedule: Q04DX003 (ip), vehicle: Klucel (hydroxypropylcellulose) (HPC)
[18] = dose: 200.0 mg/kg/injection, schedule: Q04DX003 (ip), vehicle: Klucel (hydroxypropylcellulose) (HPC)
[19] = dose: 400.0 mg/kg/injection, schedule: Q04DX003 (ip), vehicle: Klucel (hydroxypropylcellulose) (HPC)
[20] = dose: 400.0 mg/kg/injection, schedule: Q01DX009 (ip), vehicle: saline with Tween-80
[21] = dose: 100.0 mg/kg/injection, schedule: Q01DX001 (ip), vehicle: saline with Tween-80
[22] = dose: 200.0 mg/kg/injection, schedule: Q01DX001 (ip), vehicle: saline with Tween-80
[23] = dose: 400.0 mg/kg/injection, schedule: Q01DX001 (ip), vehicle: saline with Tween-80

NC(=O)C(NC(=O)Nc1ccccc1)C(N)=O
T/C (dose: 12.5 mg/kg/injection, schedule: Q04DX003 (ip), vehicle: gum acacia): 100 % of control
T/C (dose: 25.0 mg/kg/injection, schedule: Q04DX003 (ip), vehicle: gum acacia): 97 % of control
T/C (dose: 50.0 mg/kg/injection, schedule: Q04DX003 (ip), vehicle: gum acacia): 92 % of control
T/C (dose: 100.0 mg/kg/injection, schedule: Q04DX003 (ip), vehicle: gum acacia): 98 % of control

O=C(O)c1ccc(=O)oc1
T/C [1]: 100 % of control
T/C [2]: 87 % of control
T/C [3]: 90 % of control

Cc1cc(N(CCCl)CCCl)ccc1C=Nc1cccnc1
T/C (dose: 50.0 mg/kg/injection, schedule: Q01DX001 (ip), vehicle: other): 100 % of control
T/C [4]: 100 % of control
T/C [5]: 92 % of control
T/C [6]: 94 % of control

Cc1ccc(Cl)cc1NC(=O)Oc1ccc(Cl)cc1C
T/C (dose: 12.5 mg/kg/injection, schedule: Q01DX009 (ip), vehicle: Klucel (hydroxypropylcellulose) (HPC)): 95 % of control
T/C [1]: 95 % of control
T/C [2]: 97 % of control
T/C [3]: 96 % of control

Cc1cc(CSC2=NCCCN2)c(C)cc1CSC1=NCCCN1
T/C (dose: 1.56 mg/kg/injection, schedule: Q01DX009 (ip), vehicle: saline): 88 % of control
T/C (dose: 3.13 mg/kg/injection, schedule: Q01DX009 (ip), vehicle: saline): 103 % of control
T/C [7]: 92 % of control

CC1(c2cccs2)C(=O)NC(=O)N1C(=O)CCl (stereo not given)
T/C [8]: 109 % of control
T/C [9]: 103 % of control
T/C [10]: 106 % of control
T/C [11]: 99 % of control

O=P(Oc1ccccc1)(N1CCCC1)N1CCCC1
T/C [12]: 100 % of control
T/C [13]: 91 % of control
T/C (dose: 100.0 mg/kg/injection, schedule: Q04DX002 (ip), vehicle: saline): 100 % of control
T/C [14]: 98 % of control
T/C (dose: 200.0 mg/kg/injection, schedule: Q04DX002 (ip), vehicle: saline): 95 % of control

c1ccc2c(c1)CCCN2
T/C (dose: 100.0 mg/kg/injection, schedule: Q01DX001 (ip), vehicle: saline): 99 % of control
T/C (dose: 200.0 mg/kg/injection, schedule: Q01DX001 (ip), vehicle: saline): 89 % of control
T/C (dose: 400.0 mg/kg/injection, schedule: Q01DX001 (ip), vehicle: saline): 89 % of control

CC1CC(=O)C(CN(C)C)C(C)(C)C1 (stereo not given)
T/C (dose: 75.0 mg/kg/injection, schedule: Q01DX001 (ip), vehicle: saline): 106 % of control
T/C (dose: 150.0 mg/kg/injection, schedule: Q01DX001 (ip), vehicle: saline): 100 % of control

COc1cc(C=Nc2cc(Br)c(O)c(Br)c2)ccc1N(CCCl)CCCl
T/C (dose: 6.4 mg/kg/injection, schedule: Q01DX009 (ip), vehicle: carboxymethylcellulose (CMC)): 101 % of control
T/C (dose: 9.8 mg/kg/injection, schedule: Q01DX001 (ip), vehicle: carboxymethylcellulose (CMC)): 104 % of control
T/C (dose: 14.6 mg/kg/injection, schedule: Q01DX009 (ip), vehicle: carboxymethylcellulose (CMC)): 103 % of control and 111 % of control
T/C (dose: 22.0 mg/kg/injection, schedule: Q01DX001 (ip), vehicle: carboxymethylcellulose (CMC)): 177 % of control
T/C (dose: 22.0 mg/kg/injection, schedule: Q01DX009 (ip), vehicle: carboxymethylcellulose (CMC)): 94 % of control
T/C (dose: 25.0 mg/kg/injection, schedule: Q01DX001 (ip), vehicle: carboxymethylcellulose (CMC)): 153 % of control
T/C (dose: 50.0 mg/kg/injection, schedule: Q01DX001 (ip), vehicle: carboxymethylcellulose (CMC)): 161 % of control

CN(C)CCCNc1ccc(O)c2c1C(=O)c1ccccc1C2=O
T/C [12]: 100 % of control
T/C [13]: 95 % of control
T/C [14]: 106 % of control
T/C (dose: 400.0 mg/kg/injection, schedule: Q01DX009 (ip), vehicle: saline): 105 % of control

CC(C)CC(N=C(NC(CC(C)C)C(=O)O)c1ccccc1)C(=O)O (stereo not given)
T/C [3]: 108 % of control
T/C [15]: 105 % of control
T/C [16]: 95 % of control

CCOC(=O)CCCCN(C(=O)OCc1ccccc1)N(C)C(=O)OCc1ccccc1
T/C (dose: 25.0 mg/kg/injection, schedule: Q04DX003 (ip), vehicle: saline with Tween-80): 115 % of control
T/C (dose: 50.0 mg/kg/injection, schedule: Q04DX003 (ip), vehicle: saline with Tween-80): 95 % of control
T/C [9]: 101 % of control
T/C [11]: 103 % of control
T/C (dose: 400.0 mg/kg/injection, schedule: Q04DX003 (ip), vehicle: saline with Tween-80): 97 % of control

CC#CC#C/C=C1/C=CC(=O)O1
T/C [7]: 98 % of control
T/C (dose: 6.25 mg/kg/injection, schedule: Q04DX003 (ip), vehicle: saline): 96 % of control
T/C (dose: 12.5 mg/kg/injection, schedule: Q01DX009 (ip), vehicle: saline): 105 % of control
T/C (dose: 12.5 mg/kg/injection, schedule: Q04DX003 (ip), vehicle: saline): 103 % of control
T/C (dose: 25.0 mg/kg/injection, schedule: Q01DX009 (ip), vehicle: saline): 94 % of control
T/C (dose: 25.0 mg/kg/injection, schedule: Q04DX003 (ip), vehicle: saline): 91 % of control

O=S1(=O)CC(O)C(Cl)C1 (stereo not given)
T/C [12]: 101 % of control
T/C [13]: 94 % of control
T/C (dose: 100.0 mg/kg/injection, schedule: Q04DX003 (ip), vehicle: saline): 98 % of control
T/C [14]: 94 % of control
T/C (dose: 200.0 mg/kg/injection, schedule: Q04DX003 (ip), vehicle: saline): 94 % of control

COC(=O)/C=C/N1C(=O)c2ccccc2C1=O
T/C [3]: 96 % of control
T/C [17]: 102 % of control
T/C [15]: 98 % of control
T/C [18]: 92 % of control
T/C [16]: 98 % of control
T/C [19]: 96 % of control

CCC(C)(C)C(=O)Nc1cccc(OC(=O)NC)c1
T/C [20]: 93 % of control

O=C(Cl)c1cccc2c([N+](=O)[O-])cccc12
T/C (dose: 22.0 mg/kg/injection, schedule: Q01DX001 (ip), vehicle: other): 96 % of control and 100 % of control
T/C (dose: 33.0 mg/kg/injection, schedule: Q01DX001 (ip), vehicle: other): 103 % of control and 105 % of control
T/C (dose: 75.0 mg/kg/injection, schedule: Q01DX001 (ip), vehicle: other): 103 % of control and 107 % of control
T/C [4]: 97 % of control
T/C [5]: 101 % of control
T/C [6]: 106 % of control

CCOC(=O)c1ccc(NCC#N)cc1
T/C (dose: 25.0 mg/kg/injection, schedule: Q01DX009 (ip), vehicle: saline with Tween-80): 92 % of control
T/C (dose: 50.0 mg/kg/injection, schedule: Q01DX009 (ip), vehicle: saline with Tween-80): 95 % of control
T/C [21]: 97 % of control
T/C [8]: 94 % of control
T/C [22]: 92 % of control
T/C [10]: 91 % of control
T/C [23]: 98 % of control
T/C [20]: 102 % of control

O=C(NCCCl)NC1CCC(C(=O)O)CC1 (stereo not given)
T/C [21]: 97 % of control
T/C [22]: 100 % of control
T/C [23]: 94 % of control

C1#CCCCCCC#CCCCC1
T/C (dose: 37.5 mg/kg/injection, schedule: Q01DX009 (ip), vehicle: acetone): 89 % of control
T/C (dose: 75.0 mg/kg/injection, schedule: Q01DX001 (ip), vehicle: acetone): 91 % of control
T/C (dose: 75.0 mg/kg/injection, schedule: Q01DX009 (ip), vehicle: acetone): 97 % of control
T/C (dose: 150.0 mg/kg/injection, schedule: Q01DX001 (ip), vehicle: acetone): 94 % of control
T/C (dose: 150.0 mg/kg/injection, schedule: Q01DX009 (ip), vehicle: acetone): 98 % of control

C=CCNc1n[nH]c(=S)s1
T/C [8]: 101 % of control
T/C [10]: 95 % of control
T/C [20]: 98 % of control

O=C1NC(=O)/C(=C/c2ccccc2)N1
T/C [3]: 96 % of control
T/C [17]: 104 % of control
T/C [15]: 98 % of control
T/C [18]: 96 % of control
T/C [16]: 102 % of control
T/C [19]: 96 % of control
